Values after ≈ are worked out from the molar mass of the structure shown. Like-named read-outs stand apart in the source and are kept apart here.
Tests used:
[1] = system: M. tuberculosis H37Rv-infected THP-1 cells; experiment: THP-1 macrophage infection model, intracellular efficacy
[2] = target: M. smegmatis 166M c-subunit mutant IMVs (Mycolicibacterium smegmatis, UniProt A0R201+A0R205+A0R206, I70M); experiment: biochemical; details: read-out: IC50 ATP synthesis, 166M mutant IMVs
M. bovis BCG [3] = format: cell-based
M. bovis BCG [4] = experiment: microbe, parasite or virus in culture; format: cell-based; details: Mycobacterium tuberculosis variant bovis BCG, 120 h, read-out: minimal inhibitory concentration (MIC50)
M. smegmatis mc^2 155 = format: cell-based
M. bovis BCG [5] = format: cell-based; details: 7 μM, 96 h, methylene blue
[6] = system: transmembrane pH gradient of mycobacterial IMVs; experiment: Proton translocation / uncoupling assay in IMVs (ACMA fluorescence quenching); format: biochemical, M. smegmatis; details: 2 mM NADH, uncoupler SF6847 as positive control
P. aeruginosa PAO1 WT = experiment: Biofilm assay, P. aeruginosa; format: cell-based, Pseudomonas aeruginosa; details: 3 h pre-formed biofilm; 3-9 μM GaMF1.39 or 1-3 μM BDQ; PBS or M9 glucose media
E. coli UTI 189 = experiment: Biofilm assay, E. coli; format: cell-based, Escherichia coli; details: 3 h pre-formed biofilm; 3-9 μM GaMF1.39 or 1-3 μM BDQ; PBS or M9 glucose media
[7] = Microsomal stability assay; format: in vitro ADME; details: pH 7.4; mouse liver microsomes
Description: Microsomal stability assay were outsourced and performed by Bioduro-Sundia Ltd, USA based on the following protocol as done in Obach, R. S., Drug Metab. Dispos., 1999, 27, 1350; McGinnity, D. F. & Riley, R. J., Biochem. Soc. Trans., 2001, 29, 135. Working solutions of each compound are prepared from 10 mM stock solution in DMSO diluted to a final concentration of 100 μM in 0.05 M phosphate buffer (pH 7.4). Aliquots of Liver Microsome working solution are transferred into 1.1 mL tubes using a multichannel pipette. Positive control (5 mixed) and test compound working solutions are transferred into the tubes. The mixtures are vortexed gently and then pre-incubated at 37° C. 5 mM NADPH were aliquoted into the tubes using a multichannel pipette and vortexed gently. At each time point of 0 min, 5 min, 15 min, 30 min and 60 min with NADPH or 0, 30 min and 60 min without NADPH, an aliquot is removed from each tube. […] Each compound is analyzed by reversed phase HPLC using a Kinetex 2.6μ C18 100 Å column (3.0 mm×30 mm, Phenomenex). […] The amount of parent compound is determined on the basis of the peak area ratio (compound area to IS area) for each time point. The estimation of Clint (in μL/min/mg protein) is calculated using the following equation: CLint (μLmin^−1 mg^−1)=ln(2)*1000/t1/2/protein concentration

[8] = system: mycobacterial F-ATP synthase; details: IMVs of M. smegmatis, NADH; read-out: IC50 NADH-driven ATP synthesis of IMVs; cited from earlier work
[9] = target: mycobacterial F-ATP synthase (Mycobacterium bovis, UniProt A1KI93+A1KI97); details: read-out: IC50 NADH-driven ATP synthesis of IMVs, IMVs of M. bovis BCG; cited from earlier work
mycobacterial F-ATP synthase (Mycobacterium bovis, UniProt A1KI93+A1KI97), sequence (A1KI93 whole entry, looked up): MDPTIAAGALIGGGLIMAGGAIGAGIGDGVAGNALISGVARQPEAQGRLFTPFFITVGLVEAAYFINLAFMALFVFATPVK
mycobacterial F-ATP synthase (Mycobacterium bovis, UniProt A1KI93+A1KI97), sequence (A1KI97 whole entry, looked up): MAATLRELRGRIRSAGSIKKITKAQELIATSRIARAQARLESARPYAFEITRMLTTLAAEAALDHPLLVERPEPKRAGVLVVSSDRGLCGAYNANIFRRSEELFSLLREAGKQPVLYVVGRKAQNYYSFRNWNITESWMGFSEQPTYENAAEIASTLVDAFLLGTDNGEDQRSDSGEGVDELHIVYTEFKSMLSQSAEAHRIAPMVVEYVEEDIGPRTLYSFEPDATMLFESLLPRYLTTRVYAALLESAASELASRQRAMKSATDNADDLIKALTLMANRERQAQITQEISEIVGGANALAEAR

zebrafish embryos = experiment: Toxicity testing using zebrafish embryos; format: in vivo; details: 9 μM, 48 hpf embryos, 5 days
Description: Zebrafish care and ethics statement: All Zebrafish experiments were approved by the NTU Institutional Animal Care and Use Committee under reference no #A20038. Experiments were done using wild-type AB zebrafish. The ages of the embryos are shown in hours post fertilization (hpf).
Dechorionated zebrafish wild-type embryos at 48 hpf (n=120) were used. The embryos were immersed respectively in 5 ml of E3 medium containing GaMF1.39 in 6-well plate for 5 days. DMSO was used as vehicle control. The embryos were observed under a microscope. […] The experiment was repeated twice with three replicates each.

M. bovis BCG cells = experiment: microbe, parasite or virus in culture; format: cell-based; details: Mycobacterium tuberculosis variant bovis BCG, read-out: IC50 intracellular ATP inhibition
M. bovis BCG [10] = experiment: microbe, parasite or virus in culture; format: cell-based; details: for MIC: Mycobacterium tuberculosis variant bovis BCG, BCG
[11] = system: M. smegmatis F-ATP synthase; format: biochemical; details: for Inhibition of ATP synthesis of reconstituted MsF-ATP synthase: compound at its IC50 concentration (BDQ 4 nM; GaMF1.39 90 nM)
Mtb = details: Hotra et al. 2020; cited from earlier work

**Q.** What does the source list for `CCNc1cc(C)nc(Nc2ccc3nc(-c4ccc(Cl)cc4)[nH]c3c2)n1` [GaMF1.39]?
**A.** Intracellular efficacy, viable bacterial count (CFU/ml) ([1]; 3 and 9 μM, compared with initial inoculum (day 0)): showed a decrease in viable bacterial count; Alteration of infected macrophages (microscopy) ([1]; THP-1 macrophages treated with GaMF1.39): did not show any visible optical alteration of the membrane, cell form or cell size; IC50 [2]: 64 nM; Killing efficiency against M. bovis BCG (M. bovis BCG [3]; 8-fold its MIC50, up to 6 days, CFU): more efficient than its parental molecule GaMF1; Growth of M. bovis BCG cultures in killing kinetics experiment (M. bovis BCG [3]; GaMF1.39 10×MIC50, with or without Q203 100 nM, t=10 days): inhibited the growth of M. bovis cells even after 10 days; MIC50 (M. bovis BCG [4]): 6.8 µM (≈ 2.58 µg/mL); Killing of M. smegmatis mc^2 155 (M. smegmatis mc^2 155): killed; Oxygen consumption within the respiratory chain (M. bovis BCG [5]): unaffected; Uncoupled proton pumping (ACMA quenching) [6]: lacked the ability to induce uncoupled proton pumping; Killing of planktonic or biofilm cells (P. aeruginosa PAO1 WT): no killing of planktonic or biofilm cells; Killing of planktonic or biofilm cells (E. coli UTI 189): no killing of planktonic or biofilm cells; half-life [7]: 29.6 min; microsomal CLint [7]: 46.8 µL/min/mg; IC50 [8]: 90 ± 1.1 nM; IC50 [9]: 51.6 ± 1.35 nM; Toxicity in zebrafish embryos (survival) (zebrafish embryos): no signs of toxicity-induced killing; IC50 (M. bovis BCG cells): 3300 nM; MIC Drug A in combination (M. bovis BCG [10]; GaMF1.39 in combination with Clofazamine): 3 µM; MIC Drug A in combination (M. bovis BCG [10]; GaMF1.39 in combination with Q203): 0.23 µM; MIC (M. bovis BCG [10]; 144 h, read-out: MIC Drug A alone): 6.8 µM (≈ 2.58 µg/mL); ATP synthesis activity of reconstituted MsF-ATP synthase with compound ([11]; GaMF1.39 at its IC50 concentration, no compound 35.2±2.3): 20.5±2.6 nmol·min^−1 (mg protein)^−1; Inhibition of ATP synthesis of reconstituted MsF-ATP synthase [11]: 42%; MIC50 against Mtb (Mtb): 3.0 µM (≈ 1.14 µg/mL)

**Q.** For `COc1nc2ccc(Br)cc2cc1[C@@H](c1ccccc1)[C@@](O)(CCN(C)C)c1cccc2ccccc12` [BDQ, bedaquiline, reference compound], which “Killing of planktonic or biofilm cells” value (P. aeruginosa PAO1 WT) is on record?
**A.** No significant differences

**Q.** What about the “Killing of planktonic or biofilm cells” value (E. coli UTI 189) of the same compound?
**A.** No significant differences

**Q.** What about the “Inhibition of ATP synthesis of reconstituted MsF-ATP synthase” value [11] of the same compound?
**A.** ~51%

**Q.** With `CCc1nc2ccc(Cl)cn2c1C(=O)NCc1ccc(N2CCC(c3ccc(OC(F)(F)F)cc3)CC2)cc1` [Q203, Telacebec] as the compound, how does the MIC (M. bovis BCG [10]; read-out: MIC Drug B alone) read?
**A.** 0.001 µM (≈ 0.000557 µg/mL)

**Q.** And the “MIC Drug B in combination” value (M. bovis BCG [10]; Q203 in combination with GaMF1.39)?
**A.** 0.0005 µM

**Q.** With `CC(C)/N=c1\cc2n(-c3ccc(Cl)cc3)c3ccccc3nc-2cc1Nc1ccc(Cl)cc1` [Clofazamine, clofazimine] as the compound, how does the “MIC Drug B alone” value (M. bovis BCG [10]; Clofazamine alone) read?
**A.** 0.25 µM (≈ 0.118 µg/mL)

**Q.** And the “MIC Drug B in combination” value (M. bovis BCG [10]; Clofazamine in combination with GaMF1.39)?
**A.** 0.125 µM

Reference: patent publication US20250205234A1, “ANTI-TUBERCULAR COMPOSITIONS” (priority 2022, published 2025)
